Experimental data as given in patent US5177069A, “Naphthysulfonylalkanoic acid compounds and pharmaceutical compositions thereof” (Kissei Pharmaceutical Co., Ltd., priority 1989, dated 1993).

Key:
CCK-receptor = target: T1, CCK-receptor (Rattus norvegicus, UniProt P30551); assay: CCK-receptor binding assay in pancreas (125I-CCK-8, pancreatic plasma membranes); set-up: species or system Male Wistar rats; settings: 30 pM 125I-CCK-8, rat pancreatic plasma membranes, 37° C., 30 minutes; inhibition of specific binding
T1 construct: Pancreatic plasma membranes were prepared by the method of Chang et al; from tissue; host or cells: pancreas of male Wistar rats (pancreatic plasma membranes)
T1 sequence (P30551 1-444): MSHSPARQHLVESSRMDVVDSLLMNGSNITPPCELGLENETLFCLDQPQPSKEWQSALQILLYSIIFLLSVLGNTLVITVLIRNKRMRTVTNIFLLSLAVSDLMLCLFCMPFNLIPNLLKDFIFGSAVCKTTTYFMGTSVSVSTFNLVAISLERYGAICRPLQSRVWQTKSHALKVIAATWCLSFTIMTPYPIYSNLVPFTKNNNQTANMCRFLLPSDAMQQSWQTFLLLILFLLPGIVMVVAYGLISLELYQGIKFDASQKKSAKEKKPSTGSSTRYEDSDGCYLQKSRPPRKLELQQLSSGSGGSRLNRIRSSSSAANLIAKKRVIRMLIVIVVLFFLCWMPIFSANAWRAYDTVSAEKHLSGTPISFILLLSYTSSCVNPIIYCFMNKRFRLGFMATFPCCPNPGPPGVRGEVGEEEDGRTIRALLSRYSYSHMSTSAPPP
Procedure: CCK-receptor binding assay in pancreas
Pancreatic plasma membranes were prepared by the method of Chang et al. (Molecular Pharmacology, Vol. 30, p. 212-, 1986). Male Wistar rats were sacrificed by decapitation and the pancreas was removed. The pancreas was dissected free from adipose tissue and minced in 50 volumes ice-cold Tris-HCl buffer (50 mM, pH 7.4 at 37° C.). Homogenization was performed using ultra disperser and the homogenate was centrifuged at 50,000×g for 10 minutes. The pellet was washed by resuspension in the same volume of fresh Tris-HCl buffer and again centrifuged as above. The final pellet was suspended in assay buffer (50 mM Tris-HCl, 5 mM MgCl2, 5 mM dithiothreitol, 2 mg/ml of bovine serum albumin, and 0.14 mg/ml of bacitracin), and used as receptor sources for binding assay.
Thirty pM ^125 I-CCK-8 (final concentration), test drug or vehicle (for total binding) or 10^-6 M CCK-8 (for nonspecific binding) were added to the assay medium containing pancreatic plasma membranes (0.5 mg of original wet weight/ml). After incubation at 37° C. for 30 minutes, the assay medium was filtrated under reduced pressure through glass fiber filter and washed four times with 4 ml of ice-cold Tris-HCl buffer. The radioactivity trapped on the filter was counted by γ-counter (Packard 5650).
Specific binding was defined as the radioactivity bound after subtracting nonspecific binding determined in the presense of 10^-6 M unlabeled CCK-8. IC50 value was calculated from inhibition percentage of specific binding by each test drug.

isolated gallbladder = assay: CCK-antagonism in isolated gallbladder (contraction induced by CCK-8); type: cell-based, male Hartley guinea-pig; settings: Cavia porcellus; guinea-pig gallbladder strips, Krebs solution 37° C.; contraction induced by 10^-8 M CCK-8
Procedure: CCK-antagonism in isolated gallbladder
Gallbladder strips isolated from male Hartley guinea-pig were prepared and suspended in Magnus bath filled with Krebs solution (1 g of initial tension). The solution kept at 37° C. was aerated with a mixture of 95% O2 and 5% CO2. The isometric contraction of strips was recorded through a force-displacement transducer. Antagonism by test drugs against gallbladder contraction induced by 10^-8 M CCK-8 was examined and IC50 value was calculated.

amylase secretion = assay: Effect on amylase secretion in rats (stimulated by CCK-8); type: in vivo, Male Wistar rats; settings: Rattus norvegicus; intraduodenal, 30 minutes before subcutaneous CCK-8 (10 μg/kg); urethane-anesthetized rats
Procedure: Effect on amylase secretion in rats
Male Wistar rats were anesthetized with urethane (1.5 g/kg, S.C.), and tracheal cannula was inserted. Biliopancreatic juice was collected from the cannula which had been inserted into the common bile duct. Thirty minutes after intraduodenal administration of test drug, amylase secretion was stimulated by subcutaneous injection of CCK-8 (10 μg/kg). Amylase concentration in the sample collected every 30 minutes during experiment was assayed using Amylase B Test (Wako), and ED50 value was calculated.

| Structure (SMILES) | IC50 (CCK-receptor) [nM] | IC50 (isolated gallbladder) [nM] | ED50 (amylase secretion) [mg/kg] |
| --- | --- | --- | --- |
| CCCCCN(CCCOC)C(=O)C(CCC(=O)OC)CS(=O)(=O)c1ccc2ccccc2c1 (racemic) [Compound No. 3, methyl 4-[N-(3-methoxypropyl)-N-pentylcarbamoyl]-5-(2-naphthylsulfonyl)pentanoate] | 2400 | – | – |
| CCCCCN(CC(=O)OCC)C(=O)C(CCC(=O)OCc1ccccc1)CS(=O)(=O)c1ccc2ccccc2c1 (racemic) [compound 6, benzyl 4-(N-ethoxycarbonylmethyl-N-pentylcarbamoyl)-5-(2-naphthylsulfonyl)pentanoate] | 1700 | – | – |
| CCCCCN(CC(=O)OCC)C(=O)C(CCC(=O)OC)CS(=O)(=O)c1ccc2ccccc2c1 (racemic) [compound 7, methyl 4-(N-ethoxycarbonylmethyl-N-pentylcarbamoyl)-5-(2-naphthylsulfonyl)pentanoate] | 1700 | – | – |
| CCCCCN(CCCOC)C(=O)C(CCC(=O)O)CS(=O)(=O)c1ccc2ccccc2c1 (single isomer, unassigned) [compound 23] | 3300 | – | – |
| CCCCCN(CCCOC)C(=O)C(CCC(=O)O)CS(=O)(=O)c1ccc2ccccc2c1 (single isomer, unassigned; (-)) [compound 22, (-)-4-[N-(3-methoxypropyl)-N-pentylcarbamoyl]-5-(2-naphthylsulfonyl)pentanoic acid] | 120 | 2800 | – |
| CCCCCN(CC(=O)O)C(=O)C(CCC(=O)OC)CS(=O)(=O)c1ccc2ccccc2c1 (stereo not shown) [Compound No. 15, N-[2-(2-Methoxycarbonylethyl)-3-(2-naphthylsulfonyl)propionyl]-N-pentylglycine] | 7300 | – | – |
| CCCCCN(CCCOC)C(=O)C(CCC(=O)O)CS(=O)(=O)c1ccc2ccccc2c1 (stereo not shown) [Compound No. 18, 4-[N-(3-Methoxypropyl)-N-pentylcarbamoyl]-5-(2-naphthylsulfonyl)pentanoic acid] | 340 | 6800 | 15.7 |
| CCCCCN(CC(=O)OCC)C(=O)C(CCC(=O)O)CS(=O)(=O)c1ccc2ccccc2c1 (stereo not shown) [Compound No. 19, 4-(N-Ethoxycarbonylmethyl-N-pentylcarbamoyl)-5-(2-naphthylsulfonyl)pentanoic acid] | 320 | 2100 | 33.3 |
| COC(=O)CCC(CS(=O)(=O)c1ccc2ccccc2c1)C(=O)N(CCC1CCCCC1)CCC1CCCCC1 (stereo not shown) [Compound No. 34, Methyl 4-[N,N-bis(2-cyclohexylethyl)carbamoyl]-5-(2-naphthylsulfonyl)pentanoate] | 1700 | – | – |
| O=C(O)CCC(CS(=O)(=O)c1ccc2ccccc2c1)C(=O)N(CCC1CCCCC1)CCC1CCCCC1 (stereo not shown) [Compound No. 39, 4-[N,N-Bis(2-cyclohexylethyl)carbamoyl]-5-(2-naphthylsulfonyl)pentanoic acid] | 1800 | – | – |
| CCCCCN(CCOC(C)=O)C(=O)C(CCC(=O)O)CS(=O)(=O)c1ccc2ccccc2c1 (stereo not shown) [Compound No. 50, 4-[N-(2-Acetoxyethyl)-N-pentylcarbamoyl]-5-(2-naphtylsulfonyl)pentanoic acid] | 200 | – | – |
| CCCCCN(CC(=O)N1CCCCC1)C(=O)C(CCC(=O)O)CS(=O)(=O)c1ccc2ccccc2c1 (stereo not shown) [Compound No. 51, 5-(2-Naphthylsulfonyl)-4-(N-pentyl-N-piperidinocarbonylmethylcarbamoyl)pentanoic acid] | 400 | – | – |
| CCCCCN(CCCCC)C(=O)C(CCC(=O)O)CS(=O)(=O)c1ccc2ccccc2c1 (stereo not shown) [compound 20] | 29 | 2600 | 9.6 |
| CCCCCN(CCC(=O)OCC)C(=O)C(CCC(=O)O)CS(=O)(=O)c1ccc2ccccc2c1 (stereo not shown) [compound 21] | 400 | 2900 | – |
| CCCCCN(CC(=O)OC(C)C)C(=O)C(CCC(=O)O)CS(=O)(=O)c1ccc2ccccc2c1 (stereo not shown) [compound 24] | 44 | – | – |

Further lines, with some results ahead:

| IC50 (CCK-receptor) [nM] | Structure (SMILES) | IC50 (isolated gallbladder) [nM] | ED50 (amylase secretion) [mg/kg] |
| --- | --- | --- | --- |
| 25 | CCCCCN(CC(=O)OC(C)(C)C)C(=O)C(CCC(=O)O)CS(=O)(=O)c1ccc2ccccc2c1 (single isomer, unassigned) [compound 26] | – | – |
| 49 | CCCCCN(CC(=O)OC(C)(C)C)C(=O)C(CCC(=O)O)CS(=O)(=O)c1ccc2ccccc2c1 (stereo not shown) [compound 25] | – | 8 |
| 2200 | CCCCCN(CC(=O)N(C)C)C(=O)C(CCC(=O)O)CS(=O)(=O)c1ccc2ccccc2c1 (stereo not shown) [compound 27] | – | – |
| 210 | CCCCCN(CC(=O)N(CC)CC)C(=O)C(CCC(=O)O)CS(=O)(=O)c1ccc2ccccc2c1 (stereo not shown) [compound 28] | – | – |
| 2300 | CCCCCN(CC(=O)N(C(C)C)C(C)C)C(=O)C(CCC(=O)O)CS(=O)(=O)c1ccc2ccccc2c1 (stereo not shown) [compound 29] | – | – |
| 4100 | CCCCCN(CC(=O)NC(C)C)C(=O)C(CCC(=O)O)CS(=O)(=O)c1ccc2ccccc2c1 (stereo not shown) [compound 30] | – | – |
| 2000 | CCCCCN(CC(=O)NC1CCCCC1)C(=O)C(CCC(=O)O)CS(=O)(=O)c1ccc2ccccc2c1 (stereo not shown) [compound 31] | – | – |
| 290 | CCCCCN(CCCCC)C(=O)C(CC(=O)O)CS(=O)(=O)c1ccc2ccccc2c1 (stereo not shown) [compound 32] | – | – |
| 3400 | CCCCCN(CC(=O)O)C(=O)C(CCC(=O)O)CS(=O)(=O)c1ccc2ccccc2c1 (stereo not shown) [compound 33] | – | – |
| 4000 | CC(=O)OCCN(CCOC(C)=O)C(=O)C(CCC(=O)OCc1ccccc1)CS(=O)(=O)c1ccc2ccccc2c1 (stereo not shown) [compound 35] | – | – |
| 6500 | CCOC(=O)CN(CC(=O)OCC)C(=O)C(CCC(=O)OCc1ccccc1)CS(=O)(=O)c1ccc2ccccc2c1 (stereo not shown) [compound 36, benzyl 4-[N,N-bis(ethoxycarbonylmethyl)carbamoyl]-5-(2-naphthylsulfonyl)pentanoate] | – | – |
| 3100 | C=CCOCCN(CCOCC=C)C(=O)C(CCC(=O)OC)CS(=O)(=O)c1ccc2ccccc2c1 (stereo not shown) [compound 37] | – | – |
| 110 | CCOC(=O)CN(CCCOC)C(=O)C(CCC(=O)OCc1ccccc1)CS(=O)(=O)c1ccc2ccccc2c1 (stereo not shown) [compound 38] | – | – |
| 2100 | CCOC(=O)CN(CC(=O)OCC)C(=O)C(CCC(=O)O)CS(=O)(=O)c1ccc2ccccc2c1 (stereo not shown) [compound 40, 4-[N,N-Bis(ethoxycarbonylmethyl)carbamoyl]-5-(2-naphthylsulfonyl)pentanoic acid] | – | – |
| 1400 | C=CCOCCN(CCOCC=C)C(=O)C(CCC(=O)O)CS(=O)(=O)c1ccc2ccccc2c1 (stereo not shown) [compound 41] | – | – |
| 190 | CCCCCN(CCOC(=O)C(C)(C)C)C(=O)C(CCC(=O)O)CS(=O)(=O)c1ccc2ccccc2c1 (stereo not shown) [compound 52] | – | – |
| 220 | CCCCCN(CCCN1CCCC1=O)C(=O)C(CCC(=O)O)CS(=O)(=O)c1ccc2ccccc2c1 (stereo not shown) [compound 53] | – | – |
| 610 | CCCCCN(CC(=O)N1CCOCC1)C(=O)C(CCC(=O)O)CS(=O)(=O)c1ccc2ccccc2c1 (stereo not shown) [compound 54] | – | – |
| 900 | CCCCCN(CC(=O)N1CCCC1)C(=O)C(CCC(=O)O)CS(=O)(=O)c1ccc2ccccc2c1 (stereo not shown) [compound 55] | – | – |
